# Experimental data taken from PMC5218480 (PLoS ONE, 2017).
# System: MV-4-11 cells
# Assay: Gene expression microarray analysis (Affymetrix PrimeView) and GSEA
# Type: cell-based, human
# Set-up: RFU PODN (11730768_x_at) / Fold change /veh PODN (11730768_x_at) / RFU LINC00158 (11744669_a_at) / Fold change /veh LINC00158 (11744669_a_at) / RFU DUSP10 (11751237_a_at) / Fold change /veh DUSP10 (11751237_a_at) / RFU ID3 (11757404_x_at) / Fold change /veh ID3 (11757404_x_at) / RFU PLEKHG5 (11737974_s_at) / Fold change /veh PLEKHG5 (11737974_s_at) / RFU LRRC4B (11730491_at) / Fold change /veh LRRC4B (11730491_at) / RFU GIMAP4 (11747438_a_at) / Fold change /veh GIMAP4 (11747438_a_at) / RFU KRT8 (11758183_x_at) / Fold change /veh KRT8 (11758183_x_at) / RFU CNN1 (11734310_a_at) / Fold change /veh CNN1 (11734310_a_at) / RFU VPS37D (11726825_at) / Fold change /veh VPS37D (11726825_at) / RFU C10orf10 (11716522_x_at) / Fold change /veh C10orf10 (11716522_x_at) / RFU KIR2DL2 /// KIR2DL4 /// KIR2DL5A /// KIR2DL5B /// KIR2DS1 /// KIR2DS2 /// KIR2DS3 /// KIR2DS4 /// KIR3DL3 /// KIR3DL3 /// KIR3DS1 (11738374_at) / Fold change /veh KIR2DL2 /// KIR2DL4 /// KIR2DL5A /// KIR2DL5B /// KIR2DS1 /// KIR2DS2 /// KIR2DS3 /// KIR2DS4 /// KIR3DL3 /// KIR3DL3 /// KIR3DS1 (11738374_at) / RFU C1QL1 (11718748_at) / Fold change /veh C1QL1 (11718748_at) / RFU TMPRSS4 (11747572_a_at) / Fold change /veh TMPRSS4 (11747572_a_at) / RFU HAMP (11756126_x_at) / Fold change /veh HAMP (11756126_x_at) / RFU RNFT2 (11725882_a_at) / Fold change /veh RNFT2 (11725882_a_at) / RFU NR4A2 (11747474_a_at) / Fold change /veh NR4A2 (11747474_a_at) / RFU ABCC12 (11746883_a_at) / Fold change /veh ABCC12 (11746883_a_at) / RFU TMEM136 (11760407_x_at) / Fold change /veh TMEM136 (11760407_x_at) / RFU CLDN22 /// WWC2 (11732394_at) / Fold change /veh CLDN22 /// WWC2 (11732394_at) / RFU HLA-DPB1 (11760878_x_at) / Fold change /veh HLA-DPB1 (11760878_x_at) / RFU SPINT1 (11716480_a_at) / Fold change /veh SPINT1 (11716480_a_at) / RFU GAP43 (11754022_s_at) / Fold change /veh GAP43 (11754022_s_at) / RFU A4GNT (11735810_at) / Fold change /veh A4GNT (11735810_at) / RFU PRB3 (11715151_x_at) / Fold change /veh PRB3 (11715151_x_at) / RFU TUBB4B (11761932_at) / Fold change /veh TUBB4B (11761932_at) / RFU CAPN14 (11732068_a_at) / Fold change /veh CAPN14 (11732068_a_at) / RFU TMCC2 (11721928_a_at) / Fold change /veh TMCC2 (11721928_a_at) / RFU IRGQ (11745062_a_at) / Fold change /veh IRGQ (11745062_a_at) / RFU FAM174B (11720279_a_at) / Fold change /veh FAM174B (11720279_a_at) / RFU TMPRSS4 (11748680_a_at) / Fold change /veh TMPRSS4 (11748680_a_at) / RFU FAM212B (11763350_a_at) / Fold change /veh FAM212B (11763350_a_at) / RFU PLEKHG5 (11743358_a_at) / Fold change /veh PLEKHG5 (11743358_a_at) / RFU ZSCAN30 (11745921_a_at) / Fold change /veh ZSCAN30 (11745921_a_at) / RFU CMKLR1 (11741424_a_at) / Fold change /veh CMKLR1 (11741424_a_at) / RFU LOC101060620 /// MAPK8IP1 (11723275_at) / Fold change /veh LOC101060620 /// MAPK8IP1 (11723275_at) / RFU SPTSSB (11747773_x_at) / Fold change /veh SPTSSB (11747773_x_at) / RFU PRSS12 (11739890_at) / Fold change /veh PRSS12 (11739890_at) / RFU BIN1 (11741810_x_at) / Fold change /veh BIN1 (11741810_x_at) / RFU WNT11 (11732464_a_at) / Fold change /veh WNT11 (11732464_a_at) / RFU C10orf10 (11716521_a_at) / Fold change /veh C10orf10 (11716521_a_at) / RFU C5orf56 (11738089_at) / Fold change /veh C5orf56 (11738089_at) / RFU CYB561 (11721691_x_at) / Fold change /veh CYB561 (11721691_x_at) / RFU ANKRD19P (11752326_a_at) / Fold change /veh ANKRD19P (11752326_a_at) / RFU OR2T12 /// OR2T33 /// OR2T8 (11738714_s_at) / Fold change /veh OR2T12 /// OR2T33 /// OR2T8 (11738714_s_at) / RFU VCAN (11748164_a_at) / Fold change /veh VCAN (11748164_a_at) / RFU JSRP1 (11732532_at) / Fold change /veh JSRP1 (11732532_at) / RFU KRTAP10-11 (11738290_x_at) / Fold change /veh KRTAP10-11 (11738290_x_at) / RFU MYO3A (11730013_a_at) / Fold change /veh MYO3A (11730013_a_at) / RFU EBF3 (11725865_a_at) / Fold change /veh EBF3 (11725865_a_at) / RFU CAMK2N1 (11719241_x_at) / Fold change /veh CAMK2N1 (11719241_x_at) / RFU C5orf56 (11738088_a_at) / Fold change /veh C5orf56 (11738088_a_at) / RFU OLFML3 (11715873_a_at) / Fold change /veh OLFML3 (11715873_a_at) / RFU LOC100653217 /// NTM (11731650_a_at) / Fold change /veh LOC100653217 /// NTM (11731650_a_at) / RFU MAPK11 (11762145_a_at) / Fold change /veh MAPK11 (11762145_a_at) / RFU FIZ1 (11724087_x_at) / Fold change /veh FIZ1 (11724087_x_at) / RFU OASL (11726364_x_at) / Fold change /veh OASL (11726364_x_at) / RFU SOX15 (11748057_x_at) / Fold change /veh SOX15 (11748057_x_at) / RFU CD79A (11719716_a_at) / Fold change /veh CD79A (11719716_a_at) / RFU HIST1H1D (11736915_at) / Fold change /veh HIST1H1D (11736915_at) / RFU CASKIN2 (11723855_a_at) / Fold change /veh CASKIN2 (11723855_a_at) / RFU LOC730098 (11760151_x_at) / Fold change /veh LOC730098 (11760151_x_at) / RFU OR4N2 (11742367_at) / Fold change /veh OR4N2 (11742367_at) / RFU PRRT2 (11749266_a_at) / Fold change /veh PRRT2 (11749266_a_at) / RFU SNX32 (11753110_a_at) / Fold change /veh SNX32 (11753110_a_at) / RFU CDHR5 (11726645_a_at) / Fold change /veh CDHR5 (11726645_a_at) / RFU RCAN1 (11760418_a_at) / Fold change /veh RCAN1 (11760418_a_at) / RFU FAM167A (11723789_a_at) / Fold change /veh FAM167A (11723789_a_at) / RFU FAM26E (11764081_at) / Fold change /veh FAM26E (11764081_at) / RFU ISYNA1 (11749810_s_at) / Fold change /veh ISYNA1 (11749810_s_at) / RFU ACY1 (11761880_at) / Fold change /veh ACY1 (11761880_at) / RFU 11764098_at / Fold change /veh 11764098_at / RFU SAMD14 (11745864_x_at) / Fold change /veh SAMD14 (11745864_x_at) / RFU NPB (11741838_a_at) / Fold change /veh NPB (11741838_a_at) / RFU TMPRSS6 (11731388_a_at) / Fold change /veh TMPRSS6 (11731388_a_at) / RFU KRTAP10-2 (11738614_at) / Fold change /veh KRTAP10-2 (11738614_at) / RFU ARHGAP8 /// PRR5-ARHGAP8 (11727945_x_at) / Fold change /veh ARHGAP8 /// PRR5-ARHGAP8 (11727945_x_at) / RFU KRTAP5-7 /// NADSYN1 (11734609_at) / Fold change /veh KRTAP5-7 /// NADSYN1 (11734609_at) / RFU RASL12 (11751679_a_at) / Fold change /veh RASL12 (11751679_a_at) / RFU CDKN2B (11736163_a_at) / Fold change /veh CDKN2B (11736163_a_at) / RFU PRF1 (11729649_at) / Fold change /veh PRF1 (11729649_at) / RFU, ZNF638 /// ZNF638-IT1 / Fold change vs veh, ZNF638 /// ZNF638-IT1 / RFU, PANK3 / Fold change vs veh, PANK3 / RFU, SH3YL1 / Fold change vs veh, SH3YL1 / RFU, ZEB2 / Fold change vs veh, ZEB2 / RFU, NRIP1 / Fold change vs veh, NRIP1 / RFU, PTTG1IP / Fold change vs veh, PTTG1IP / RFU, CAPN2 / Fold change vs veh, CAPN2 / RFU, MED14 / Fold change vs veh, MED14 / RFU, SNORA58 / Fold change vs veh, SNORA58 / RFU, C1orf63 / Fold change vs veh, C1orf63 / RFU, LRRFIP1 / Fold change vs veh, LRRFIP1 / RFU, NDUFAF7 / Fold change vs veh, NDUFAF7 / RFU, SLC12A2 / Fold change vs veh, SLC12A2 / RFU, IBTK / Fold change vs veh, IBTK / RFU, ESF1 / Fold change vs veh, ESF1 / Fold change vs veh, TMEM50B / RFU, TAOK1 / Fold change vs veh, TAOK1 / RFU, ACBD3 / Fold change vs veh, ACBD3 / RFU, TMA16 / Fold change vs veh, TMA16 / RFU, RWDD3 / Fold change vs veh, RWDD3 / RFU, BCAT1 / Fold change vs veh, BCAT1 / RFU, EDEM3 / Fold change vs veh, EDEM3 / RFU, TMEM33 / Fold change vs veh, TMEM33 / RFU, WDR75 / Fold change vs veh, WDR75 / RFU, AHCTF1 / Fold change vs veh, AHCTF1 / RFU, TFRC / Fold change vs veh, TFRC / RFU, ZDHHC17 / Fold change vs veh, ZDHHC17 / RFU, NOM1 / Fold change vs veh, NOM1 / RFU, ARL8B / Fold change vs veh, ARL8B / RFU, ZBTB11 / Fold change vs veh, ZBTB11 / RFU, TAMM41 / Fold change vs veh, TAMM41 / RFU, KIAA1704 /// LOC100996395 / Fold change vs veh, KIAA1704 /// LOC100996395 / RFU, ING1 / Fold change vs veh, ING1 / RFU, TRMT61B / Fold change vs veh, TRMT61B / RFU, FUBP3 / Fold change vs veh, FUBP3 / RFU, TP53 / Fold change vs veh, TP53 / RFU, TNKS2 / Fold change vs veh, TNKS2 / RFU, ZFP14 / Fold change vs veh, ZFP14 / RFU, ACTR2 / Fold change vs veh, ACTR2 / RFU, PPP3R1 / Fold change vs veh, PPP3R1 / RFU, PIK3R1 / Fold change vs veh, PIK3R1 / RFU, HNRNPA1 / Fold change vs veh, HNRNPA1 / RFU, RNF170 / Fold change vs veh, RNF170 / RFU, ZNF28 / Fold change vs veh, ZNF28 / RFU, RNGTT / Fold change vs veh, RNGTT / RFU, OGT / Fold change vs veh, OGT / RFU, BRD1 / Fold change vs veh, BRD1 / RFU, MARS / Fold change vs veh, MARS / RFU, ZNF655 / Fold change vs veh, ZNF655 / RFU, FAHD1 / Fold change vs veh, FAHD1 / RFU, BDP1 / Fold change vs veh, BDP1 / RFU, LRRCC1 / Fold change vs veh, LRRCC1 / RFU, ARID1A / Fold change vs veh, ARID1A / RFU, ZNF146 / Fold change vs veh, ZNF146 / RFU, ZNF330 / Fold change vs veh, ZNF330 / RFU, GPN3 / Fold change vs veh, GPN3 / RFU, C9orf123 / Fold change vs veh, C9orf123 / RFU, N4BP2L2 / Fold change vs veh, N4BP2L2 / RFU, ARFIP1 / Fold change vs veh, ARFIP1 / RFU, FAM179B / Fold change vs veh, FAM179B / RFU, BCL10 / Fold change vs veh, BCL10 / RFU, UHRF1BP1L / Fold change vs veh, UHRF1BP1L / RFU, BET1 / Fold change vs veh, BET1 / RFU, CNOT2 / Fold change vs veh, CNOT2 / RFU, ZNF268 / Fold change vs veh, ZNF268 / Fold change vs veh, ZNF507 / RFU, DGCR2 / Fold change vs veh, DGCR2 / RFU, WDSUB1 / Fold change vs veh, WDSUB1 / Fold change vs veh, HSP90B1 /// MIR3652 / RFU, ADSS / Fold change vs veh, ADSS / RFU, GK / Fold change vs veh, GK / RFU, ZNF148 / Fold change vs veh, ZNF148 / RFU, TAF9 / Fold change vs veh, TAF9 / RFU, SLC1A5 / Fold change vs veh, SLC1A5 / RFU, SLMO2 / Fold change vs veh, SLMO2 / RFU, ABCC4 / Fold change vs veh, ABCC4 / RFU, LOC101060439 /// RAP1B / Fold change vs veh, LOC101060439 /// RAP1B / RFU, RFX7 / Fold change vs veh, RFX7 / RFU, GTPBP10 / Fold change vs veh, GTPBP10 / RFU, CNEP1R1 / Fold change vs veh, CNEP1R1 / RFU, BIVM-ERCC5 /// ERCC5 / Fold change vs veh, BIVM-ERCC5 /// ERCC5 / RFU, ILF3 / Fold change vs veh, ILF3 / RFU 11762660_at / Fold change /veh 11762660_at / RFU VCAN (11757783_s_at) / Fold change /veh VCAN (11757783_s_at) / RFU DDX43 (11728927_at) / Fold change /veh DDX43 (11728927_at) / RFU KRT8 (11758188_x_at) / Fold change /veh KRT8 (11758188_x_at) / RFU NKD1 (11759106_at) / Fold change /veh NKD1 (11759106_at) / RFU SRD5A1 (11742802_a_at) / Fold change /veh SRD5A1 (11742802_a_at) / RFU TPSAB1 /// TPSB2 (11721975_s_at) / Fold change /veh TPSAB1 /// TPSB2 (11721975_s_at) / RFU GSTM3 (11746129_a_at) / Fold change /veh GSTM3 (11746129_a_at) / RFU IL23R (11737362_x_at) / Fold change /veh IL23R (11737362_x_at) / RFU TMEM51 (11727254_a_at) / Fold change /veh TMEM51 (11727254_a_at) / RFU PIWIL2 (11732686_x_at) / Fold change /veh PIWIL2 (11732686_x_at) / RFU ORM1 (11744905_x_at) / Fold change /veh ORM1 (11744905_x_at) / RFU CCDC152 (11743942_at) / Fold change /veh CCDC152 (11743942_at) / RFU ECM1 (11717891_a_at) / Fold change /veh ECM1 (11717891_a_at) / RFU IL23R (11748794_a_at) / Fold change /veh IL23R (11748794_a_at) / RFU TNFAIP8L3 (11732012_x_at) / Fold change /veh TNFAIP8L3 (11732012_x_at) / RFU MBOAT4 (11741988_at) / Fold change /veh MBOAT4 (11741988_at) / RFU 11764193_at / Fold change /veh 11764193_at / RFU TMEM53 (11763286_at) / Fold change /veh TMEM53 (11763286_at) / RFU MAGEB2 (11727129_at) / Fold change /veh MAGEB2 (11727129_at) / RFU TMEM200A (11744735_a_at) / Fold change /veh TMEM200A (11744735_a_at) / RFU CCDC152 (11751479_a_at) / Fold change /veh CCDC152 (11751479_a_at) / RFU FAM211A (11726209_a_at) / Fold change /veh FAM211A (11726209_a_at) / RFU RGS16 (11746705_a_at) / Fold change /veh RGS16 (11746705_a_at) / RFU VCAN (11755009_s_at) / Fold change /veh VCAN (11755009_s_at) / RFU RHOB (11743442_s_at) / Fold change /veh RHOB (11743442_s_at) / RFU RGS16 (11720943_a_at) / Fold change /veh RGS16 (11720943_a_at) / RFU RGS16 (11720944_at) / Fold change /veh RGS16 (11720944_at) / RFU, VPS4B / Fold change vs veh, VPS4B / RFU, CREB1 / Fold change vs veh, CREB1 / RFU, DNAJC13 / Fold change vs veh, DNAJC13 / RFU, GNAQ / Fold change vs veh, GNAQ / RFU, CDK5R1 / Fold change vs veh, CDK5R1 / RFU, ZRANB3 / Fold change vs veh, ZRANB3 / RFU, CUL4A / Fold change vs veh, CUL4A / RFU, CCNY / Fold change vs veh, CCNY / RFU, UFL1 / Fold change vs veh, UFL1 / RFU, COG3 / Fold change vs veh, COG3 / RFU, DIAPH2 / Fold change vs veh, DIAPH2 / RFU, SKA2 / Fold change vs veh, SKA2 / RFU, AFF3 / Fold change vs veh, AFF3 / RFU, LMF1 / Fold change vs veh, LMF1 / RFU, IPO11 / Fold change vs veh, IPO11 / RFU, DFFB / Fold change vs veh, DFFB / RFU, FOXP1 / Fold change vs veh, FOXP1 / RFU, CARD8 / Fold change vs veh, CARD8 / RFU, STRN3 / Fold change vs veh, STRN3 / RFU, ADK / Fold change vs veh, ADK / RFU, RASSF2 / Fold change vs veh, RASSF2 / RFU, WIPF1 / Fold change vs veh, WIPF1 / RFU, LARP1B / Fold change vs veh, LARP1B / RFU, RASA1 / Fold change vs veh, RASA1 / RFU, RB1 / Fold change vs veh, RB1 / RFU, PPFIA1 / Fold change vs veh, PPFIA1 / RFU, MAT2A / Fold change vs veh, MAT2A / RFU, CCT5 / Fold change vs veh, CCT5 / RFU, WDR92 / Fold change vs veh, WDR92 / RFU, CUX1 / Fold change vs veh, CUX1 / RFU, TTC7A / Fold change vs veh, TTC7A / RFU, TMEM135 / Fold change vs veh, TMEM135 / RFU, DEPTOR / Fold change vs veh, DEPTOR / RFU, CPM / Fold change vs veh, CPM / RFU, DNAJB6 / Fold change vs veh, DNAJB6 / RFU, CACNA2D3 / Fold change vs veh, CACNA2D3 / RFU, DTX4 / Fold change vs veh, DTX4 / RFU, TFCP2 / Fold change vs veh, TFCP2 / RFU, GMCL1 /// GMCL1P1 / Fold change vs veh, GMCL1 /// GMCL1P1 / RFU, AEBP2 / Fold change vs veh, AEBP2 / RFU, SNHG1 /// SNORD22 /// SNORD25 /// SNORD26 /// SNORD27 /// SNORD28 /// SNORD29 /// SNORD31 / Fold change vs veh, SNHG1 /// SNORD22 /// SNORD25 /// SNORD26 /// SNORD27 /// SNORD28 /// SNORD29 /// SNORD31 / Fold change (Aza/veh), C12orf56 (ProbeSet 11735607_a_at) / Fold change (ACY-1035/veh), C12orf56 (ProbeSet 11735607_a_at) / Fold change (Aza/veh), FGFR1OP (ProbeSet 11751329_s_at) / Fold change (ACY-1035/veh), FGFR1OP (ProbeSet 11751329_s_at) / Fold change (Aza/veh), VPS36 (ProbeSet 11739960_a_at) / Fold change (ACY-1035/veh), VPS36 (ProbeSet 11739960_a_at) / RFU SYPL1 (11715823_x_at) / Fold change /veh SYPL1 (11715823_x_at) / RFU IGFBP7 (11715501_s_at) / Fold change /veh IGFBP7 (11715501_s_at) / RFU REEP3 (11722064_at) / Fold change /veh REEP3 (11722064_at) / RFU IGLL1 (11728026_x_at) / Fold change /veh IGLL1 (11728026_x_at): dose or concentration left out as unconfirmed
# Settings: ProbeSet 11745789_a_at; LIST D
structure (smiles),measurement,value
Nc1ccc(-c2cccs2)cc1NC(=O)c1ccc2c(c1)cc(C1CC1)n2CCN1CCOCC1 [ACY-1035],"RFU, TMEM135",185.11 RFU
